Where “and” joins values, the source holds several entries; their conditions need not be identical. Identical values can stand only once. Non-standard residues stand in square brackets, D forms with d. Residues, ends and D or L forms follow the SMILES beside them. No end group written: not given here.
What was measured:
[1] = system: EV71; test: Antiviral activity against EV71 in mice, virus copies in lung by qRT-PCR; assay type: in vivo, ICR mice
Excerpt: • (1) 10 2-day-old ICR mice were randomly divided into two groups, 5 in each group.

[2] = 20 mg/kg i.p. once daily for 3 days
Excerpt: • (1) A total of 12 10-day-old suckling mice were randomly divided into two groups, 6 in each group.

[3] = system: EV71; test: Anti-EV71 efficiency in Vero cells, viral RNA by qRT-PCR; assay type: cell-based, enterovirus 71; conditions: read-out: IC50 against EV71 by qRT-PCR
Excerpt: […]

[4] = system: EV71; test: Anti-EV71 efficiency in Huh7.5 cells, viral RNA by qRT-PCR; assay type: cell-based, enterovirus 71; conditions: read-out: IC50 against EV71 by qRT-PCR
Excerpt: […]

[5] = Cytotoxicity by CCK-8 in Vero cells; assay type: cell-based; conditions: 24 h, read-out: Cell viability (%)
Experimental: (§1) The experiment was performed as follows. • (1) Vero cells were plated in a 96-well plate at 100 μl per well. • (2) After the cells reached 70%-80% confluence, the MEM medium containing 10% serum was replaced with a MEM medium containing 2% serum. Then, polypeptide BP8, BP10 or BP15 was added to generate gradient concentrations of […], […], 12.5 μM, 25 μM, 50 μM, 100 μM, and 200 μM (final concentrations), respectively. • (3) The samples were collected 24 hours after the addition of the polypeptide, and 10 μl of live cell detection reagent CCK-8 was added to each well and mixed well. • (4) The plate was placed at 37° C. for 4 h. • (5) The absorbance value at OD450 was measured with a microplate reader.

[6] = system: Vero cells; test: Cytotoxicity by CCK-8 in Vero cells; assay type: cell-based; conditions: for Cell viability (%): 24 h
Experimental: as §1

[7] = system: CVB3; test: Anti-CVB3 effect in Vero cells, qRT-PCR; assay type: cell-based, Coxsackievirus B3; conditions: text of Example 21, read-out: IC50 against CVB3
Experimental: • (1) Vero cells were plated in a 24-well cell plate. • (2) After the cells reached 70%-80% confluence, the MEM medium containing 10% serum was replaced with a MEM medium containing 2% serum and CVB3 virus, 0.5 ml per well. MOI of the virus was 0.01. […]

CC(=O)N[C@H](CCCNC(=N)N)C(=O)N[C@H](CS)C(=O)N[C@H](Cc1ccc(O)cc1)C(=O)N[C@H](CCC(N)=O)C(=O)N[C@H](CCCNC(=N)N)C(=O)N[C@@H](C(=O)N[C@H](CCC(=O)O)C(=O)N[C@H](CCC(=O)O)C(=O)N1CCC[C@@H]1C(=O)N1CCC[C@@H]1C(=O)N[C@H](CCCNC(=N)N)C(=O)N[C@H](CCCNC(=N)N)C(=O)N[C@H](CCCNC(=N)N)C(=O)N[C@H](CCC(N)=O)C(=O)N[C@H](CCCNC(=N)N)C(=O)N[C@H](CCCNC(=N)N)C(=O)N[C@H](CCCCN)C(=O)N[C@H](CCCCN)C(=O)N[C@H](CCCNC(=N)N)C(=O)NCC(=O)N[C@H](Cc1ccc(O)cc1)C(N)=O)C(C)C [ER-DRI] (Ac-[dR][dC][dY][dQ][dR][dV][dE][dE][dP][dP][dR][dR][dR][dQ][dR][dR][dK][dK][dR]G[dY]-NH2)
EV71 viral load in mouse lung, in words ([1]; 10 mg/kg i.p. every 12 h for 5 days vs PBS): can significantly reduce the viral load of EV71 in the mouse lung
Number of virus copy in lung tissue (Copies/g) ([1]; 2-day-old ICR mice, EV71 i.p., 10 mg/kg i.p. every 12 h for 5 days, individual animals, 10 mg/kg): 294534 Copies/g and 484192 Copies/g and 2956937 Copies/g and 549759 Copies/g and 116302 Copies/g
HE staining of brain, liver, lung and kidney, in words ([2]; four weeks after administration): no significant pathological change in the brain, liver, lung and kidney
body weight vs PBS group, in words ([2]; 10-day-old suckling mice, weight recorded 15 days): no significant difference in body weight

RRRRRRRREEVRQYCRDQ [P2]
IC50 [3]: 1960 nM
IC50 [4]: 1840 nM

YGRKKRRQRRRGSGEAVREYCK [BP8]
viability at 24 h, 3.0625 µM ([5]; 3.0625 μM): 103%
viability at 24 h, 6.125 µM ([5]; 6.125 μM): 101%
viability at 24 h, 12.5 µM ([5]; 12.5 μM): 95.5%
viability at 24 h, 25 µM ([5]; 25 μM): 96.6%
viability at 24 h, 50 µM ([5]; 50 μM): 94.4%
viability at 24 h, 100 µM ([5]; 100 μM): 99.7%
viability at 24 h, 200 µM ([5]; 200 μM): 87.2%
Cell viability (%) ([6]; 3.0625 μM): 105.2007% and 108.7417%
Cell viability (%) ([6]; 6.125 μM): 111.3814% and 119.3004%
Cell viability (%) ([6]; 12.5 μM): 106.8102% and 109.1924%
Cell viability (%) ([6]; 25 μM): 99.47% and 113.6348%
Cell viability (%) ([6]; 50 μM): 108.2266% and 112.4759%
Cell viability (%) ([6]; 100 μM): 96.7% and 97.35%
Cell viability (%) ([6]; 200 μM): 92.0023% and 92.52%
cytotoxicity, result in words ([6]; CCK-8, 24 h): not toxic to cells within 200 μM
IC50 [7]: 4120 nM

From patent US11999806B2, “Broad-spectrum polypeptide against enterovirus and application thereof” (WUHAN INSTITUTE OF VIROLOGY, CHINESE ACADEMY OF SCIENCES, priority 2018, dated 2024)
